Patent US6828450B2, “Triptycene analogs” (Kansas State University Research Foundation, priority 2000, dated 2004)
“And” between values parts separate entries of the source, which are not always exact repeats. Identical values can stand only once. Like-named read-outs stand apart in the source and are kept apart here.

Tests used:
[1] = test system: L1210 cells; assay: RNA synthesis (3H-uridine incorporation) in L1210 cells; type: cell-based, murine
Method: FIG. 16. Comparison of the concentration-dependent inhibitions of RNA synthesis by the TT analog TT2 (●) and DAU (∘) in L1210 cells in vitro. […] RNA synthesis in vehicle-treated control cells was 47,117±3,204 cpm (100±7%; striped area). The blank value (1,746±155 cpm) for cells incubated and pulse-labeled at 2° C. with 2 μCi of ^3H-uridine has been substracted from the results.
Except when otherwise specified, the cells were incubated at 37° C. for 90 min in the presence or absence of drugs and then pulse-labeled for an additional 30 min with 1 μCi of [methyl-^3H]thymidine (50 Ci/mmol; Amersham Corp., Arlington Heights, Ill.) to estimate the rate of DNA synthesis. […] After drying the filters, the radioactivity bound to the acid-precipitable material was determined by liquid scintillation counting (LSC) in 10 ml of Bio-Safe NA (Researeh Products International Corp., Mount Prospect, Ill.).

[2] = test system: HL-60-R8 cells; assay: DNA synthesis in HL-60-R8 cells; type: cell-based, human; conditions: read-out: IC50, inhibition of DNA synthesis in HL-60-R8 cells
[3] = test system: HL-60-RV cells; assay: Nucleoside transport in HL-60-RV cells; type: cell-based, human; conditions: for IC50: 15-min preincubation, 30 s
From the text: FIG. 15. Comparison of the concentration-dependent inhibitions of the cellular transport of purine (A) and pyrimidine (B) nucleosides by DAU (open symbols) and TT2 (closed symbols) in HL-60-S (circles), HL-60-RV (squares) and HL-60-R8 (triangles) cells in vitro. Results are expressed as % of ^3H-adenosine (26,032±2,239 cpm, 100±9%, striped area in A) and ^3H-thymidine (17,934±1,398 cpm, 100±8%, striped area in B) transported into vehicle-treated control cells over 30 s.
The MDR HL-60-RV and HL-60-R8 cells were developed in Melvin S. Center's laboratory (Kansas State University) and similarly maintained in RPMI 1640 medium in the absence of drugs (Marsh W, et al, Cancer Res 46: 4053-4057, 1986; McGrath T et al, and Center M S: Biochem Biophys Res Commun 145: 1171-1176, 1987; Marsh W and Center M S: Cancer Res 47: 5080-5086, 1987; McGrath T, et al, Biochem Pharmacol 38: 3611-3619, 1989; Marquardt D, et al, Cancer Res 50: 1426-1430, 1990; Marquardt D and Center M S: J Natl Cancer Inst 83: 1089-1109, 1991; Krishnamachary N and Center M S; Cancer Res 53: 3658-3661, 1993). Every 4 weeks, these HL-60-RV and HL-60-R8 sublines were exposed to 41 nM DAU for 48 h to stabilize their MDR phenotype. This concentration of DAU, which is not cytotoxic to MDR HL-60 sublines, was removed from the culture medium at least 48 h before experimentation. […] RFs were determined by dividing the IC50 of the MDR cells by that of the sensitive WT parent cell line.
L1210 cells (about 1.5×10^6 cells/0.5 ml) were preincubated for 15 min at 37° C. in the presence or absence of TTs and then exposed to 1 μCi of ^3H-thymidine for only 30 sec to assess the cellular uptake of nucleoside over such very short period of time. HL-60-S, HL-60-RV and HL-60-R8 cells (1.2×10^6 cells/0.5 ml) were preincubated for 15 min at 37° C. in the presence or absence (control) of drugs and then exposed to 1 μCi of [2,8-^3H]adenosine (30 Ci/mmol; American Radiolabeled Chemicals, St. Louis, Mo.) or [methyl-^3H]thymidine (50 Ci/mmol; Amersham, Arlington Heights, Ill.) for only 30 s to, respectively, assess the cellular uptake of purine and pyrimidine nucleosides over such very short period of time Reactions were diluted with 2 ml of ice-cold Ca^2+/Mg^2+-free Dulbecco's phosphate buffered saline (PBS) and the unincorporated radiolabel was removed by centrifugation at 200×g for 10 min. […] Cell lysates were mixed with 9 ml of Bio-Safe II (Researeh Products International) and counted to estimate the cellular uptake of ^3H-thymidine. Drug inhibition was expressed as % of ^3H-thymidine or ^3H-adenosine transported into vehicle-treated control cells over similar 30-sec period.

| SMILES | IC50 ([1]; 3 h drug + 1 h pulse-labeling, read-out: IC50, inhibition of RNA synthesis in L1210 cells) | IC50 [2] | RFs, nucleoside transport ([3]; HL-60-RV and HL-60-R8 vs HL-60-S, adenosine and thymidine) | IC50 ([3]; purine nucleoside, read-out: IC50, cellular transport of 3H-adenosine in HL-60-RV cells) | IC50 ([3]; pyrimidine nucleoside, read-out: IC50, cellular transport of 3H-thymidine in HL-60-RV cells) | times DAU inhibits RNA synthesis more effectively than TT2 ([1]; L1210) | IC50 ([2]; Homo sapiens) | effect on nucleoside transport in the two MDR sublines ([3]; HL-60-RV and HL-60-R8) |
| --- | --- | --- | --- | --- | --- | --- | --- | --- |
| COC1=CC(=O)C2=C(C1=O)C1C3=C(C(=O)C=CC3=O)C2c2ccccc21 (centres unmarked) [TT2, 2-Methoxy-9,10-dihydro-9,10-[1′,2′]benzenoanthracene-1,4,5,8-tetraone] | 6000 nM and ~6000 nM | 2100 nM | 1.0-1.2 | 3200 nM | 2000 nM | – | – | – |
| COc1cccc2c1C(=O)c1c(O)c3c(c(O)c1C2=O)C[C@@](O)(C(C)=O)C[C@@H]3O[C@H]1C[C@H](N)[C@H](O)[C@H](C)O1 [DAU, daunomycin, reference compound] | – | – | – | – | – | about 7.5 times | 1700 nM | unable |
